# Patent US11964052B2, “Lipid compounds and lipid nanoparticle compositions” (SUZHOU ABOGEN BIOSCIENCES CO., LTD., priority 2021, dated 2024)
# What was measured:
# Type in all cases: physicochemical
# [1] = Lipid nanoparticle size and polydispersity by dynamic light scattering (Malvern Zetasizer Nano ZS); conditions: LNP of cationic lipid/DSPC/cholesterol/PEG-lipid 50:10:38.5:1.5 with mRNA
# Method: (§1) Briefly, a cationic lipid provided herein, DSPC, cholesterol, and PEG-lipid were solubilized in ethanol at a molar ratio of 50:10:38.5:1.5, and mRNA were diluted in 10 to 50 mM citrate buffer, pH=4. The LNPs were prepared at a total lipid to mRNA weight ratio of approximately 10:1 to 30:1 by mixing the ethanolic lipid solution with the aqueous mRNA solution at a volume ratio of 1:3 using a microfluidic apparatus, total flow rate ranging from 9-30 mL/min. Ethanol were thereby removed and replaced by DPBS using dialysis. Finally, the lipid nanoparticles were filtered through a 0.2 μm sterile filter.
# (§2) Lipid nanoparticle size were determined by dynamic light scattering using a Malvern Zetasizer Nano ZS (Malvern UK) using a 173° backscatter detection mode. The encapsulation efficiency of lipid nanoparticles were determined using a Quant-it Ribogreen RNA quantification assay kit (Thermo Fisher Scientific, UK) according to the manufacturer's instructions.
# [2] = Encapsulation efficiency of lipid nanoparticles, Quant-it Ribogreen RNA quantification assay; conditions: LNP with mRNA
# Method: as §1, §2
# [3] = Apparent pKa of LNP formulations, TNS fluorescence assay; conditions: LNP cationic lipid/DSPC/cholesterol/DMG-PEG 50/10/38.5/1.5 mol %, pH 3 to 9
# Method: As reported in literature, the apparent pKa of LNP formulations correlates with the delivery efficiency of LNPs for nucleic acids in vivo. The apparent pKa of each formulation was determined using an assay based on fluorescence of 2-(p-toluidino)-6-napthalene sulfonic acid (TNS). LNP formulations comprising of cationic lipid/DSPC/cholesterol/DMG-PEG (50/10/38.5/1.5 mol %) in PBS were prepared as described above. TNS was prepared as a 300 uM stock solution in distilled water. LNP formulations were diluted to 0.1 mg/ml total lipid in 3 mL of buffered solutions containing 50 mM sodium citrate, 50 mM sodium phosphate, 50 mM sodium borate, and 30 mM sodium chloride where the pH ranged from 3 to 9. An aliquot of the TNS solution was added to give a final concentration of 0.1 mg/ml and following vortex mixing fluorescence intensity was measured at room temperature in a Molecular Devices Spectramax iD3 spectrometer using excitation and mission wavelengths of 325 nm and 435 nm. A sigmoidal best fit analysis was applied to the fluorescence data and the pKa value was measured as the pH giving rise to half-maximal fluorescent intensity.
Compound,polydispersity [1],size (nm) [1] [nm],Encapsulation Efficiency [2] [%],Apparant Pka [3]
CCCCCCCCCCCCOCC(CN(CCCCCC(=O)OCC(CCCCCC)CCCCCCCC)CCN(CCO)C1CCC1)OCCCCCCCCCCCC (stereo not drawn) [Compound 28],0.2,54.96,86.9,5.905
CCCCCCCCCCCCOCC(CN(CCCCCC(=O)OCC(CCCCCC)CCCCCCCC)CCN(CCO)C1CCCC1)OCCCCCCCCCCCC (stereo not drawn) [Compound 29],0.110,53.73,80.1,5.699
CCCCCCCCCCCCOCC(CN(CCCCCC(=O)OCC(CCCCCC)CCCCCCCC)CCN(CCO)C1CCCCC1)OCCCCCCCCCCCC (stereo not drawn) [Compound 30],0.107,49.64,92.7,5.409
CCCCCCCCCCCCOCC(CN(CCCCCC(=O)OCC(CCCCCC)CCCCCCCC)CCN(CCO)C1CCCCCC1)OCCCCCCCCCCCC (stereo not drawn) [Compound 31],0.127,51.35,80.1,5.704
CCCCCCCCCCCCOCC(CN(CCCCCC(=O)OCC(CCCCCC)CCCCCCCC)CCN(CCO)C1CC1)OCCCCCCCC (stereo not drawn) [Compound 34],0.103,58.33,89.60,5.482
CCCCCCCCCCCCOCC(CN(CCCCCC(=O)OCC(CCCCCC)CCCCCCCC)CCN(CCO)C1CCCC1)OCCCCCCCC (stereo not drawn) [Compound 35],0.1,56.71,96.80,5.940
CCCCCCCCCCCCOCC(CN(CCCCCC(=O)OCC(CCCCCC)CCCCCCCC)CCN(CCO)C1CCCCC1)OCCCCCCCC (stereo not drawn) [Compound 36],0.078,59.91,94.20,5.774
CCCCCCCCCCCCOCC(CN(CCCCCC(=O)OCC(CCCCCC)CCCCCCCC)CCN(CCO)C1CCCCCC1)OCCCCCCCC (stereo not drawn) [Compound 37],0.156,51.77,92.70,5.726
CCCCCCCCCCCCOCC(CN(C)CCN(CCO)C1CCC1)OCCCCCC (stereo not drawn) [Compound 38],0.194,97.62,76.2,6.971
CCCCCCCCCCCCOCC(CN(C)CCN(CCO)C1CCC1)OCCCCCCCCCCCC (stereo not drawn) [Compound 39],0.162,111.2,94.7,6.712
CCCCCCCCCCCCOCC(CN(C)CCO)OC(=O)CCCCCCCCCCC (stereo not drawn) [Compound 41],0.136,82.81,83.5,5.746
CCCCCCCCCCCCOCC(CN(C)CCN(CCO)C1CCCCC1)OCCCCCC (stereo not drawn) [Compound 45],0.289,68.33,86.8,7.466
CCCCCCCCCCCCCCCCCCOCC(CN(CCCCCC(=O)OCCCCCCCCCC)CCN(CCO)C1CCC1)OCCCCCC (stereo not drawn) [Compound 46],0.039,103.3,95.9,6.047
CCCCCCCCCCCCCCOC(COCCCCCCCCCCCC)CN(CCCCCC(=O)OCCCCCCCCCC)CCN(CCO)C1CCC1 (stereo not drawn) [Compound 47],0.082,82.89,91.3,6.120
CCCCCCCCCCCCOCC(CN(CCCCCC(=O)OCCCCCCCCCC)CCN(CCO)C1CCC1)OCCCCCCCC (stereo not drawn) [Compound 48],0.113,79.39,91.7,6.263
CCCCCCCCC(CCCCCCCC)CNC(=O)CCOCC(CN(C)CCO)OCCC(=O)NCC(CCCCCCCC)CCCCCCCC (stereo not drawn) [Compound 50],0.099,58.14,90.4,8.298
CCCCCCCCC(CCCCCCCC)COC(=O)CCOCC(CN(C)CCN(CCO)C1CCC1)OCCC(=O)OCC(CCCCCCCC)CCCCCCCC (stereo not drawn) [Compound 55],0.034,75.43,89.5,6.851
CCCCCCCCC(CCCCCCCC)CC(=O)OCC(CCCCN(CCO)C1CCC1)COC(=O)CC(CCCCCCCC)CCCCCCCC [Compound 56],0.107,53.32,91.0,6.403
CCCCCCCCC(CCCCCCCC)CNC(=O)CCOCC(CN(C)CCN(CCO)C1CCCC1)OCCC(=O)NCC(CCCCCCCC)CCCCCCCC (stereo not drawn) [Compound 57],0.055,70.05,97.0,7.73
CCCCCCCCC(CCCCCCCC)CC(=O)OCC(CCCCN(CCO)C1CCC1)COC(=O)CCCCC (stereo not drawn) [Compound 60],0.068,73.31,92.6,6.985
CCCCCCCCC(CCCCCCCC)CNC(=O)CCOC(COCCC(=O)OCC(CCCCCCCC)CCCCCCCC)CN(C)CCN(CCO)C1CCC1 (stereo not drawn) [Compound 61],0.055,70.83,96.2,7.219
CCCCCCCCCCCC(=O)OCC(CN(CCCCCC(=O)OCC(CCCCCC)CCCCCC)CCN1CCC(O)C1)OC(=O)CCCCC (stereo not drawn) [Compound 62],0.075,58.44,94.1,7.062
CCCCCCC(CCCCCC)COC(=O)CCCCCN(CCN1CCC(O)C1)CC(COC(=O)CCCCC)OC(=O)CCCCC (stereo not drawn) [Compound 63],0.076,150.2,95.9,6.928

# Results, then the molecule that gave them:
polydispersity [1],size (nm) [1] [nm],Encapsulation Efficiency [2] [%],Apparant Pka [3],Compound
0.232,59.1,44.6,3.519,CCCCCCCCC(CCCCCC)CC(=O)OCC(CN(CCO)C1CCC1)OC(=O)CC(CCCCCC)CCCCCCCC (stereo not drawn) [Compound 32]
0.06,63.54,94.30,5.943,CCCCCCCCCCCCOCC(CN(CCCCCC(=O)OCC(CCCCCC)CCCCCCCC)CCN(CCO)C1CCC1)OCCCCCCCC (stereo not drawn) [Compound 33]
0.155,82.81,94.4,6.283,CCCCCCCCCCCCOCC(CN(C)CCN(CCO)C1CCC1)OC(=O)CCCCCCCCCCC (stereo not drawn) [Compound 42]
0.362,138.6,78.4,7.227,CCCCCCCCCOC(=O)CCOCC(CN(C)CCN(CCO)C1CCC1)OCCC(=O)OCCCCCCCCC (stereo not drawn) [Compound 43]
0.178,112.8,85.2,6.65,CCCCCCCCCCCCOCC(CN(C)CCN(CCO)C1CCC1)OC(=O)CCCCC (stereo not drawn) [Compound 44]
0.031,99.66,83.7,6.221,CCCCCCCCCCCCOCC(CN(CCCCCC(=O)OCCCCCCCCCC)CCN(CCO)C1CCC1)OCCCCCC (stereo not drawn) [Compound 49]
0.057,75.11,94.7,7.727,CCCCCCCCC(CCCCCCCC)CNC(=O)CCOCC(CN(C)CCN(CCO)C1CCC1)OCCC(=O)NCC(CCCCCCCC)CCCCCCCC (stereo not drawn) [Compound 51]
0.014,90.06,89.79,6.069,CCCCCCCCCCCCCCCCOCC(CN(CCCCCC(=O)OCCCCCCCCCC)CCN(CCO)C1CCC1)OCCCCCC (stereo not drawn) [Compound 53]
0.082,73.61,97.0,6.428,CCCCCCCCC(CCCCCCCC)CC(=O)OCC(CCCCN(CCN(C)CCO)C1CCC1)COC(=O)CC(CCCCCCCC)CCCCCCCC [Compound 65]
0.044,72.85,96.6,6.749,CCCCCCCCC(CCCCCCCC)CC(=O)OCC(CCCCN(C)CCN(CCO)C1CCC1)COC(=O)CC(CCCCCCCC)CCCCCCCC [Compound 66]
